Earlier results on one compound are cited in US20110236881A1, “MODULATION OF INFLUENZA VIRUS” (priority 2008, published 2011).

SMILES strings stand for the structures.

This series concerns the target full-length M2 (Influenza A virus, UniProt P0DOF5). As to conditions: the protein binds a single drug molecule per tetramer.

Sequence of full-length M2 (P0DOF5 whole entry): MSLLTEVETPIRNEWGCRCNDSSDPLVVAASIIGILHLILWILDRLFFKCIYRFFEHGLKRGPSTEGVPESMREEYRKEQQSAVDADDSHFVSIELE

In the case of `NC12CC3CC(CC(C3)C1)C2` [amantadine], the “cooperativity factor of inhibition of full-length M2” value is listed as 1.0.
